Results published in the supplement of paper PMC10307832.

Experiments:
Test in all cases: relative viability (nuclei count vs DMSO), 5 days (fraction); higher = more cells survive
[1] = compound: CC1=CC=C(C=C1)C(=O)CN2C3=C(CCCC3)SC2=N [Pifithrin_alpha] + CS(=O)(=O)CCNCc1ccc(-c2ccc3ncnc(Nc4ccc(OCc5cccc(F)c5)c(Cl)c4)c3c2)o1 [Lapatinib] (partner 2 µM)
How it was run: (§1)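 Lung cancer cell lines, seeded in 1536-well plates, were treated the following day by pin tool with a single drug or with five library-drug doses (not always all listed) in √10 steps on top of a fixed anchor-drug dose. Cells were fixed and nuclei stained in one step after 5 days, and nuclei were counted. Relative viability is the nuclei count for treated wells divided by that for vehicle wells, reported as medians of duplicate plates.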

[2] = compound: CC1=CC=C(C=C1)C(=O)CN2C3=C(CCCC3)SC2=N [Pifithrin_alpha] + CC1(C)CCC(c2ccc(Cl)cc2)=C(CN2CCN(c3ccc(C(=O)NS(=O)(=O)c4ccc(N[C@H](CCN5CCOCC5)CSc5ccccc5)c(S(=O)(=O)C(F)(F)F)c4)cc3)CC2)C1 [Navitoclax] (partner 0.5 µM)
How it was run: as §1

Axitinib + Vorinostat = compound: CNC(=O)c1ccccc1Sc1ccc2c(/C=C/c3ccccn3)n[nH]c2c1 [Axitinib] + O=C(CCCCCCC(=O)Nc1ccccc1)NO [Vorinostat] (partner 1 µM)
How it was run: as §1

Bemcentinib + Dasatinib = compound: Nc1nc(Nc2ccc3c(c2)CC[C@@H](N2CCCC2)CC3)nn1-c1cc2c(nn1)-c1ccccc1CCC2 [Bemcentinib] + Cc1nc(Nc2ncc(C(=O)Nc3c(C)cccc3Cl)s2)cc(N2CCN(CCO)CC2)n1 [Dasatinib] (partner 0.075 µM)
How it was run: as §1

Row | Cell Line | relative viability ([1]; first compound 1 µM) | relative viability ([1]; first compound 3.162 µM) | relative viability ([1]; first compound 10 µM) | relative viability ([1]; first compound 31.62 µM) | relative viability ([1]; first compound 100 µM) | relative viability ([2]; first compound 1 µM) | relative viability ([2]; first compound 3.162 µM) | relative viability ([2]; first compound 10 µM) | relative viability ([2]; first compound 31.62 µM) | relative viability ([2]; first compound 100 µM) | relative viability (Axitinib + Vorinostat; first compound 0.005 µM) | relative viability (Axitinib + Vorinostat; first compound 0.01581 µM) | relative viability (Axitinib + Vorinostat; first compound 0.05 µM) | relative viability (Axitinib + Vorinostat; first compound 0.1581 µM) | relative viability (Axitinib + Vorinostat; first compound 0.5 µM) | relative viability (Bemcentinib + Dasatinib; first compound 0.04 µM) | relative viability (Bemcentinib + Dasatinib; first compound 0.1265 µM) | relative viability (Bemcentinib + Dasatinib; first compound 0.4 µM) | relative viability (Bemcentinib + Dasatinib; first compound 1.265 µM) | relative viability (Bemcentinib + Dasatinib; first compound 4 µM)
1 | 201T | 0.959 | 0.728 | 0.744 | 0.83 | 0.689 | 1.18 | 1.19 | 1.15 | 1.04 | 1.05 | 0.995 | 0.946 | 0.969 | 0.9 | 0.951 | 0.559 | 0.676 | 0.591 | 0.613 | 0.57
2 | A549 | 1.12 | 1 | 0.838 | 0.766 | 0.739 | 1.37 | 1.26 | 1.14 | 0.985 | 1.29 | – | – | – | – | – | – | – | – | – | –
3 | A-427 | 0.981 | 0.877 | 0.99 | 0.845 | 1.18 | 0.803 | 0.843 | 0.79 | 0.773 | 0.933 | 0.909 | 0.929 | 0.864 | 0.903 | 0.956 | 0.719 | 0.737 | 0.68 | 0.707 | 0.691
4 | ABC-1 | 1.36 | 1.24 | 0.923 | – | 1.36 | – | – | – | – | – | 1.15 | – | 1.13 | 1.47 | 1.34 | 0.423 | 0.512 | 0.59 | 0.553 | 0.667
5 | BEN | 0.522 | 0.769 | 0.686 | 0.733 | 0.873 | 0.0519 | 0.0641 | 0.0597 | 0.0612 | 0.0656 | 0.609 | 0.637 | 0.635 | 0.592 | 0.551 | 0.272 | 0.37 | 0.317 | 0.22 | 0.241
6 | CAL-12T | 0.624 | 0.614 | 0.696 | 0.441 | 0.447 | – | 1.22 | 1.16 | 0.686 | 1.15 | 0.869 | 0.72 | 0.686 | 0.737 | 1.12 | 0.366 | 0.356 | 0.398 | 0.45 | 0.555
7 | COR-L23 | 1.05 | 1.28 | 1.06 | – | 0.926 | 1.09 | 1.09 | 0.974 | – | 1.19 | 0.516 | 0.478 | 0.502 | 0.452 | 0.586 | 0.414 | 0.531 | 0.55 | 0.359 | 0.482
8 | COR-L 105 | 0.343 | 0.395 | 0.336 | 0.321 | 0.533 | 0.65 | 0.663 | 0.722 | 0.63 | 0.626 | 0.958 | 0.794 | 0.874 | 0.825 | 0.818 | 0.317 | 0.328 | 0.329 | 0.404 | 0.272
9 | Calu-6 | 1.02 | 1.03 | 0.986 | 0.675 | 1.07 | 0.976 | 0.741 | 0.781 | 0.508 | 0.704 | – | – | – | – | – | – | – | – | – | –
10 | ChaGo-K-1 | – | – | – | – | – | 0.873 | 0.999 | 0.888 | 0.734 | 0.891 | 0.727 | 0.754 | 0.797 | 0.746 | 0.737 | 0.591 | 0.614 | 0.636 | 0.496 | 0.481
11 | EBC-1 | 0.21 | 0.225 | 0.192 | 0.213 | 0.165 | 0.386 | 0.318 | 0.29 | 0.221 | 0.224 | – | – | – | – | – | – | – | – | – | –
12 | EKVX | 0.167 | 0.16 | 0.139 | 0.181 | 0.14 | 0.936 | 0.886 | 0.738 | 0.645 | 0.595 | 0.804 | 0.687 | 0.797 | 0.686 | 0.805 | 0.556 | 0.528 | 0.592 | 0.628 | 0.588
13 | EMC-BAC-2 | 0.87 | 0.905 | 0.864 | 0.623 | 0.928 | 1.22 | 1.29 | 1.17 | 0.933 | 1.31 | 0.469 | 0.371 | 0.528 | 0.445 | 0.438 | 0.349 | 0.323 | 0.342 | 0.29 | 0.336
14 | EPLC-272H | – | 0.8 | 1.05 | 0.629 | 0.739 | – | 0.978 | 1.02 | 0.894 | 1.25 | 0.341 | 0.359 | 0.498 | 0.481 | 0.459 | 0.285 | 0.389 | 0.332 | 0.393 | 0.364
15 | H3255 | 0.13 | 0.208 | 0.267 | 0.244 | 0.192 | 0.376 | 0.428 | 0.444 | 0.434 | 0.497 | 0.806 | – | 0.927 | 0.844 | 0.796 | 0.308 | 0.396 | 0.315 | 0.332 | 0.346
16 | HARA | 0.675 | 0.625 | 0.759 | 0.589 | 0.478 | 1.17 | 1.22 | 1.17 | 0.767 | 0.945 | 0.533 | 0.559 | 0.526 | – | 0.655 | 0.124 | 0.27 | 0.253 | 0.221 | 0.21
17 | HCC-15 | 0.636 | 1.05 | 0.734 | 0.666 | 0.845 | 0.681 | 0.697 | 0.524 | 0.441 | 0.525 | 0.992 | 0.91 | 0.837 | 0.743 | 0.823 | 0.628 | 0.696 | 0.708 | 0.669 | 0.732
18 | HCC-44 | 0.932 | 0.965 | 0.791 | 0.641 | 0.763 | 0.8 | 0.899 | 0.795 | 0.701 | 0.801 | 1.04 | 1.15 | 1.11 | 1.09 | 1.13 | – | – | – | – | –
